Results: PubChem BioAssay AID1259411 (Chemical Carcinogenesis Research Information System (CCRIS), 2018)
Active and inactive are the calls of the source. The rule behind the calls is not given here.

Tested on: rodent carcinogenicity bioassays, tumor incidence
Experiment: CCRIS carcinogenicity studies
How it was run: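 Archive of carcinogenicity, mutagenicity, tumor promotion and tumor inhibition results drawn from journals, NCI reports and other sources, expert-reviewed; covers 1985-2011 and is no longer updated.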

## COCCN(N=O)C(N)=O
Species: RAT, Strain/Sex: F344/FEMALE, Route: INTRAVESICULAR, Dose: 0, 3.2 MG 2/WK FOR 17 WK (STUDY DURATION: LIFETIME), Tumor Site: Type of Lesion: BLADDER: TUMOR
  carcinogen call: active; positive

## CC(C)NC(=O)N1CC(=O)N(c2cc(Cl)cc(Cl)c2)C1=O
Species: Mouse, Strain/Sex: CD-1/Female (50/Group), Route: Oral, Dose: 0, 160, 800, 4000 ppm of 95.7% iprodione in diet for 99 wk, study duration 99 wk, Dose: 0, 160, 800, 4000 ppm of 95.7% iprodione in diet for 99 wk, study duration 99 wk, Tumor Site: Type of Lesion: Liver: hepatocellular adenoma and carcinoma in high dose mice
  carcinogen call: active; positive
Species: Mouse, Strain/Sex: CD-1/Male (50/Group), Route: Oral, Dose: 0, 160, 800, 4000 ppm of 95.7% iprodione in diet for 99 wk, study duration 99 wk, Dose: 0, 160, 800, 4000 ppm of 95.7% iprodione in diet for 99 wk, study duration 99 wk, Tumor Site: Type of Lesion: Liver: hepatocellular adenoma and carcinoma in high dose mice
  carcinogen call: active; positive
Species: Rat, Strain/Sex: Sprague-Dawley/Female (60/Group), Route: Oral, Dose: 0, 8.4, 16.5, 95 mg/kg/day of 94.5-95.7% iprodione in diet for 104 wk, study duration 104 wk, Dose: 0, 8.4, 16.5, 95 mg/kg/day of 94.5-95.7% iprodione in diet for 104 wk, study duration 104 wk
  carcinogen call: inactive; negative
Species: Rat, Strain/Sex: Sprague-Dawley/Male (60/Group), Route: Oral, Dose: 0, 6.1, 12.4, 69 mg/kg/day of 94.5-95.7% iprodione in diet for 104 wk, study duration 104 wk, Dose: 0, 6.1, 12.4, 69 mg/kg/day of 94.5-95.7% iprodione in diet for 104 wk, study duration 104 wk, Tumor Site: Type of Lesion: Testes: Interstitial cell adenoma (high dose only)
  carcinogen call: active; positive

## CC(=O)c1ccc(S(=O)(=O)NC(=O)NC2CCCCC2)cc1
Species: MOUSE, Strain/Sex: B6C3F1/FEMALE, Route: ORAL, Dose: 0, 6359, 12718 PPM IN DIET, TWA, Dose: 0, 6359, 12718 PPM IN DIET, TWA
  carcinogen call: inactive; negative
Species: MOUSE, Strain/Sex: B6C3F1/MALE, Route: ORAL, Dose: 0, 6359, 12718 PPM IN DIET, TWA, Dose: 0, 6359, 12718 PPM IN DIET, TWA
  carcinogen call: inactive; negative
Species: RAT, Strain/Sex: F344/FEMALE, Route: ORAL, Dose: 0, 10000, 20000 PPM IN DIET, Dose: 0, 10000, 20000 PPM IN DIET
  carcinogen call: inactive; negative
Species: RAT, Strain/Sex: F344/MALE, Route: ORAL, Dose: 0, 10000, 20000 PPM IN DIET, Dose: 0, 10000, 20000 PPM IN DIET
  carcinogen call: inactive; negative

## CNNCc1ccc(C(=O)NC(C)C)cc1
Species: MOUSE, Strain/Sex: B6C3F1/FEMALE, Route: INTRAPERITONEAL, Dose: 0, 6, 12 MG/KG IN BUFFERED SALINE 3/WK FOR 52 WK (STUDY DURATION: 67-85 WK), Dose: 0, 6, 12 MG/KG IN BUFFERED SALINE 3/WK FOR 52 WK (STUDY DURATION: 67-85 WK), Tumor Site: Type of Lesion: LUNG: ALVEOLAR/BRONCHIOLAR ADENOMA, HEMATOPOIETIC SYSTEM (LEUKEMIA), LYMPHATIC SYSTEM: LYMPHOMA, UTERUS: ADENOCARCINOMA, Tumor Site: Type of Lesion: LUNG: ALVEOLAR/BRONCHIOLAR ADENOMA, HEMATOPOIETIC SYSTEM (LEUKEMIA), LYMPHATIC SYSTEM: LYMPHOMA, UTERUS: ADENOCARCINOMA
  carcinogen call: active; positive
Species: MOUSE, Strain/Sex: B6C3F1/MALE, Route: INTRAPERITONEAL, Dose: 0, 6, 12 MG/KG IN BUFFERED SALINE 3/WK FOR 52 WK (STUDY DURATION: 67-85 WK), Dose: 0, 6, 12 MG/KG IN BUFFERED SALINE 3/WK FOR 52 WK (STUDY DURATION: 67-85 WK), Tumor Site: Type of Lesion: LUNG: ALVEOLAR/BRONCHIOLAR ADENOMA OR CARCINOMA, HEMATOPOIETIC SYSTEM (LEUKEMIA), LYMPHATIC SYSTEM: LYMPHOMA, BRAIN: OLF, Tumor Site: Type of Lesion: LUNG: ALVEOLAR/BRONCHIOLAR ADENOMA OR CARCINOMA, HEMATOPOIETIC SYSTEM (LEUKEMIA), LYMPHATIC SYSTEM: LYMPHOMA, BRAIN: OLF
  carcinogen call: active; positive
Species: RAT, Strain/Sex: BR46/MALE, Route: INTRAVENOUS, Dose: 24 MG/KG 1/WK FOR 52 WK, Tumor Site: Type of Lesion: MULTIPLE SITES: BENIGN TUMOR OR MALIGNANT TUMOR
  carcinogen call: active; positive
Species: RAT, Strain/Sex: SPRAGUE-DAWLEY/FEMALE, Route: INTRAPERITONEAL, Dose: 0, 15, 30 MG/KG IN BUFFERED SALINE 3/WK FOR 26 WK (STUDY DURATION: 31-86 WK), Dose: 0, 15, 30 MG/KG IN BUFFERED SALINE 3/WK FOR 26 WK (STUDY DURATION: 31-86 WK), Tumor Site: Type of Lesion: LYMPHATIC SYSTEM: MALIGNANT LYMPHOMA, MAMMARY GLAND: ADENOMA (NOS) OR ADENOCARCINOMA (NOS), BRAIN (CEREBRUM): OLFACTORY, Tumor Site: Type of Lesion: LYMPHATIC SYSTEM: MALIGNANT LYMPHOMA, MAMMARY GLAND: ADENOMA (NOS) OR ADENOCARCINOMA (NOS), BRAIN (CEREBRUM): OLFACTORY
  carcinogen call: active; positive
Species: RAT, Strain/Sex: SPRAGUE-DAWLEY/MALE, Route: INTRAPERITONEAL, Dose: 0, 15, 30 MG/KG IN BUFFERED SALINE 3/WK FOR 26 WK (STUDY DURATION: 43-86 WK), Dose: 0, 15, 30 MG/KG IN BUFFERED SALINE 3/WK FOR 26 WK (STUDY DURATION: 43-86 WK), Tumor Site: Type of Lesion: HEMATOPOIETIC SYSTEM (LEUKEMIA), LYMPHATIC SYSTEM: MALIGNANT LYMPHOMA, MAMMARY GLAND: ADENOMA (NOS) OR ADENOSARCOMA (NOS, Tumor Site: Type of Lesion: HEMATOPOIETIC SYSTEM (LEUKEMIA), LYMPHATIC SYSTEM: MALIGNANT LYMPHOMA, MAMMARY GLAND: ADENOMA (NOS) OR ADENOSARCOMA (NOS
  carcinogen call: active; positive

## Nc1ccccc1C(=O)OC/C=C/c1ccccc1
Species: MOUSE, Strain/Sex: B6C3F1/FEMALE, Route: ORAL, Dose: 0, 15000, 30000 PPM IN DIET FOR 103 WK (STUDY DURATION: 105-107 WK), Dose: 0, 15000, 30000 PPM IN DIET FOR 103 WK (STUDY DURATION: 105-107 WK), Tumor Site: Type of Lesion: LIVER: HEPATOCELLULAR ADENOMA OR CARCINOMA
  carcinogen call: active; positive
Species: MOUSE, Strain/Sex: B6C3F1/MALE, Route: ORAL, Dose: 0, 15000, 30000 PPM IN DIET FOR 103 WK (STUDY DURATION: 105-107), Dose: 0, 15000, 30000 PPM IN DIET FOR 103 WK (STUDY DURATION: 105-107), Tumor Site: Type of Lesion: LIVER: HEPATOCELLULAR ADENOMA OR CARCINOMA
  carcinogen call: active; positive
Species: RAT, Strain/Sex: F344/FEMALE, Route: ORAL, Dose: 0, 15000, 30000 PPM IN DIET FOR 103 WK (STUDY DURATION: 105-107 WK), Dose: 0, 15000, 30000 PPM IN DIET FOR 103 WK (STUDY DURATION: 105-107 WK)
  carcinogen call: inactive; negative
Species: RAT, Strain/Sex: F344/MALE, Route: ORAL, Dose: 0, 15000, 30000 PPM IN DIET FOR 103 WK (STUDY DURATION: 105-107), Dose: 0, 15000, 30000 PPM IN DIET FOR 103 WK (STUDY DURATION: 105-107), Tumor Site: Type of Lesion: PANCREAS: ACINAR CELL ADENOMA OR CARCINOMA, KIDNEY (CORTEX): ADENOMA OR ADENOCARCINOMA (NOS)
  carcinogen call: active; positive

## O=[N+]([O-])c1cc([N+](=O)[O-])c2ccc3cccc4ccc1c2c43
Species: RAT, Strain/Sex: STRAIN CD/FEMALE, Route: INTRAGASTRIC, Dose: 10 UMOL IN DMSO 3/WK FOR 4 WK (TOTAL DOSE: 16 UMOL/RAT) (STUDY DURATION: 78 WK), Tumor Site: Type of Lesion: ADRENAL GLAND: CORTICAL ADENOMA, PITUITARY GLAND: CARCINOMA
  carcinogen call: active; positive
Species: RAT, Strain/Sex: STRAIN CD/FEMALE, Route: INTRAPERITONEAL, Dose: 0, 10 UMOL IN DMSO 3/WK FOR 4 WK (TOTAL DOSE: 16 UMOL/RAT) (STUDY DURATION: 78 WK), Tumor Site: Type of Lesion: MAMMARY GLAND: ADENOCARCINOMA, FIBROADENOMA, ADENOMA
  carcinogen call: active; positive
Species: RAT, Strain/Sex: STRAIN-CD/FEMALE, Route: SUBCUTANEOUS, Dose: 0, 6.3 UMOL (TOTAL DOSE) ADMINISTERED OVER 8 WK BEGINNING ON DAY OF BIRTH (STUDY DURATION: 67 WK), Tumor Site: Type of Lesion: INTEGUMENTARY SYSTEM: MALIGNANT FIBROUS HISTIOCYTOMA
  carcinogen call: active; positive

## [Ni+2].[OH-].[OH-]
Species: RAT, Strain/Sex: WISTAR, Route: INTRAMUSCULAR IMPLANT, Tumor Site: Type of Lesion: IMPLANT SITE
  carcinogen call: active; positive
